PubChem BioAssay AID248 (DTP/NCI, 2004)
Several values for one entry are separate records, joined by “and”; a condition that tells them apart may be missing. Equal entries are not always repeated. Toxic doses and inconclusive results are not listed. Rule as the data show it: active = T/C of 150% or more; inactive = T/C below 125%.

System: L1210 leukemia ip in BDF1 mice, survival T/C
Assay: NCI In Vivo Anticancer Drug Screen. Data for tumor model L1210 Leukemia (intraperitoneal) in B6D2F1 (BDF1) mice
Settings: endpoint: mean survival time, higher = longer survival
Procedure, shortened: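 Tumor cells were implanted, animals were treated, and survival was followed. The result divides the treated measurement by the vehicle-control measurement.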

[1] = dose: 100.0 mg/kg/injection, schedule: Q01DX009 (ip), vehicle: Klucel (hydroxypropylcellulose) (HPC)
[2] = dose: 100.0 mg/kg/injection, schedule: Q04DX003 (ip), vehicle: Klucel (hydroxypropylcellulose) (HPC)
[3] = dose: 200.0 mg/kg/injection, schedule: Q01DX009 (ip), vehicle: Klucel (hydroxypropylcellulose) (HPC)
[4] = dose: 200.0 mg/kg/injection, schedule: Q04DX003 (ip), vehicle: Klucel (hydroxypropylcellulose) (HPC)
[5] = dose: 400.0 mg/kg/injection, schedule: Q01DX009 (ip), vehicle: Klucel (hydroxypropylcellulose) (HPC)
[6] = dose: 400.0 mg/kg/injection, schedule: Q04DX003 (ip), vehicle: Klucel (hydroxypropylcellulose) (HPC)
[7] = dose: 100.0 mg/kg/injection, schedule: Q01DX001 (ip), vehicle: Klucel (hydroxypropylcellulose) (HPC)
[8] = dose: 200.0 mg/kg/injection, schedule: Q01DX001 (ip), vehicle: Klucel (hydroxypropylcellulose) (HPC)
[9] = dose: 400.0 mg/kg/injection, schedule: Q01DX001 (ip), vehicle: Klucel (hydroxypropylcellulose) (HPC)
[10] = dose: 100.0 mg/kg/injection, schedule: Q01DX001 (ip), vehicle: carboxymethylcellulose (CMC)
[11] = dose: 200.0 mg/kg/injection, schedule: Q01DX001 (ip), vehicle: carboxymethylcellulose (CMC)
[12] = dose: 400.0 mg/kg/injection, schedule: Q01DX001 (ip), vehicle: carboxymethylcellulose (CMC)

Measured: T/C

CC(CNC1CCCCC1)OC(=O)c1ccc([N+](=O)[O-])cc1 (centres undefined)
inactive: dose: 75.0 mg/kg/injection, schedule: Q01DX001 (ip), vehicle: acetone 103 % of control | dose: 150.0 mg/kg/injection, schedule: Q01DX001 (ip), vehicle: acetone 93 % of control | dose: 300.0 mg/kg/injection, schedule: Q01DX001 (ip), vehicle: acetone 97 % of control

C[N+](C)(C)CCP(=O)([O-])O
inactive: dose: 100.0 mg/kg/injection, schedule: Q01DX009 (ip), vehicle: saline 101 % of control | dose: 200.0 mg/kg/injection, schedule: Q01DX009 (ip), vehicle: saline 93 % of control | dose: 400.0 mg/kg/injection, schedule: Q01DX009 (ip), vehicle: saline 95 % of control

CC#N.[CH-]=C(C)C.[Cl][Pt][Cl]
inactive: dose: 6.25 mg/kg/injection, schedule: Q04DX003 (ip), vehicle: water 95 % of control | dose: 12.5 mg/kg/injection, schedule: Q04DX003 (ip), vehicle: water 97 % of control | dose: 25.0 mg/kg/injection, schedule: Q04DX003 (ip), vehicle: water 100 % of control | dose: 50.0 mg/kg/injection, schedule: Q04DX003 (ip), vehicle: water 101 % of control

Cc1cc(Cl)ccc1NS(=O)(=O)c1ccccc1
inactive: [1] 107 % of control | [2] 98 % of control | [3] 98 % of control | [4] 103 % of control | [5] 96 % of control | [6] 97 % of control

c1coc(CNc2ncnc3nc[nH]c23)c1
inactive: dose: 75.0 mg/kg/injection, schedule: Q01DX001 (ip), vehicle: other 92 % of control | dose: 75.0 mg/kg/injection, schedule: Q01DX009 (ip), vehicle: Klucel (hydroxypropylcellulose) (HPC) 103 % of control | dose: 150.0 mg/kg/injection, schedule: Q01DX001 (ip), vehicle: other 98 % of control | dose: 150.0 mg/kg/injection, schedule: Q01DX009 (ip), vehicle: Klucel (hydroxypropylcellulose) (HPC) 97 % of control | dose: 300.0 mg/kg/injection, schedule: Q01DX001 (ip), vehicle: other 97 % of control | dose: 300.0 mg/kg/injection, schedule: Q01DX009 (ip), vehicle: Klucel (hydroxypropylcellulose) (HPC) 106 % of control

O=C(O)c1ccccc1Cc1cccc2c(Cl)cccc12
inactive: [7] 97 % of control | [8] 98 % of control | [9] 101 % of control

O=S(=O)(Nc1ncccn1)c1ccc(N=NSC2=NC=NC3=NC=NC32)cc1 (centres undefined)
inactive: dose: 100.0 mg/kg/injection, schedule: Q01DX001 (ip), vehicle: other 104 % of control | dose: 200.0 mg/kg/injection, schedule: Q01DX001 (ip), vehicle: other 124 % of control | dose: 400.0 mg/kg/injection, schedule: Q01DX001 (ip), vehicle: other 106 % of control

O=Nc1ccc(O)cc1Cl
inactive: [7] 103 % of control and 88 % of control | [8] 117 % of control | [9] 95 % of control and 103 % of control

O=C1c2ccccc2-c2cc(Br)c([N+](=O)[O-])cc21
inactive: dose: 50.0 mg/kg/injection, schedule: Q01DX001 (ip), vehicle: carboxymethylcellulose (CMC) 93 % of control | [10] 96 % of control | [11] 86 % of control | [12] 88 % of control

CN(C)C(=S)c1ccc(Cl)cc1
inactive: dose: 12.5 mg/kg/injection, schedule: Q01DX009 (ip), vehicle: Klucel (hydroxypropylcellulose) (HPC) 98 % of control | dose: 25.0 mg/kg/injection, schedule: Q01DX009 (ip), vehicle: Klucel (hydroxypropylcellulose) (HPC) 98 % of control

COc1ccc(OC)c(NC(=O)Nc2c(C)n(C)n(-c3ccccc3)c2=O)c1
inactive: [1] 93 % of control | [2] 98 % of control | [3] 93 % of control | [4] 93 % of control | [5] 101 % of control | [6] 90 % of control

CC1(CO)CC2C=CC1C2 (centres undefined)
inactive: dose: 100.0 mg/kg/injection, schedule: Q04DX002 (ip), vehicle: saline with Tween-80 99 % of control | dose: 200.0 mg/kg/injection, schedule: Q04DX002 (ip), vehicle: saline with Tween-80 99 % of control | dose: 400.0 mg/kg/injection, schedule: Q04DX002 (ip), vehicle: saline with Tween-80 99 % of control

CCCCNC(=O)c1ccc(C(=O)c2ccc(C(=O)NCCCC)c(C(=O)O)c2)cc1C(=O)O
inactive: dose: 100.0 mg/kg/injection, schedule: Q04DX002 (ip), vehicle: Klucel (hydroxypropylcellulose) (HPC) 90 % of control | dose: 200.0 mg/kg/injection, schedule: Q04DX002 (ip), vehicle: Klucel (hydroxypropylcellulose) (HPC) 87 % of control | dose: 400.0 mg/kg/injection, schedule: Q04DX002 (ip), vehicle: Klucel (hydroxypropylcellulose) (HPC) 87 % of control

CCNP(=S)(OCC)OCC
inactive: dose: 75.0 mg/kg/injection, schedule: Q01DX001 (ip), vehicle: saline 98 % of control | dose: 150.0 mg/kg/injection, schedule: Q01DX001 (ip), vehicle: saline 89 % of control | dose: 300.0 mg/kg/injection, schedule: Q01DX001 (ip), vehicle: saline 96 % of control

C1OC1C1CO1 (centres undefined)
inactive: dose: 6.25 mg/kg/injection, schedule: Q01DX009 (ip), vehicle: saline 92 % of control | dose: 10.0 mg/kg/injection, schedule: Q01DX001 (ip), vehicle: saline 106 % of control | dose: 12.5 mg/kg/injection, schedule: Q01DX009 (ip), vehicle: saline 104 % of control | dose: 12.5 mg/kg/injection, schedule: Q04DX003 (ip), vehicle: saline 110 % of control | dose: 20.0 mg/kg/injection, schedule: Q01DX001 (ip), vehicle: saline 103 % of control | dose: 25.0 mg/kg/injection, schedule: Q01DX009 (ip), vehicle: saline 114 % of control | dose: 25.0 mg/kg/injection, schedule: Q04DX003 (ip), vehicle: saline 119 % of control | dose: 40.0 mg/kg/injection, schedule: Q01DX001 (ip), vehicle: saline 114 % of control | dose: 44.0 mg/kg/injection, schedule: Q01DX001 (ip), vehicle: saline 105 % of control | dose: 50.0 mg/kg/injection, schedule: Q04DX003 (ip), vehicle: saline 105 % of control

CCC1([N+](=O)[O-])COP(=O)(NCc2ccncc2)OC1 (centres undefined)
inactive: [10] 98 % of control | [11] 98 % of control | [12] 96 % of control

CCO/C=C1\SC(=S)N(CCc2ccc(OC)c(OC)c2)C1=O
inactive: [1] 94 % of control | [2] 102 % of control | [3] 93 % of control | [4] 102 % of control | [5] 103 % of control | [6] 102 % of control

Cc1cc2c(C)c3ccccc3c(C)c2c2ccccc12
inactive: dose: 50.0 mg/kg/injection, schedule: Q04DX003 (ip), vehicle: Klucel (hydroxypropylcellulose) (HPC) 98 % of control | [2] 95 % of control | [4] 104 % of control
